Key:
Format in all cases: biochemical
[1] = target: T1, recombinant human VAP-1 (Homo sapiens, UniProt Q16853); test: Activity on recombinant human VAP-1, HRP-coupled Amplex Red hydrogen peroxide assay; details: substrate 1 mM benzylamine; compound incubated with enzyme at 37° C. for 30 minutes; pH 7.4; read-out: Inhibitory Activity (IC50, nM) human VAP-1
T1 construct: purchased R&D systems
T1 sequence (Q16853 1-763): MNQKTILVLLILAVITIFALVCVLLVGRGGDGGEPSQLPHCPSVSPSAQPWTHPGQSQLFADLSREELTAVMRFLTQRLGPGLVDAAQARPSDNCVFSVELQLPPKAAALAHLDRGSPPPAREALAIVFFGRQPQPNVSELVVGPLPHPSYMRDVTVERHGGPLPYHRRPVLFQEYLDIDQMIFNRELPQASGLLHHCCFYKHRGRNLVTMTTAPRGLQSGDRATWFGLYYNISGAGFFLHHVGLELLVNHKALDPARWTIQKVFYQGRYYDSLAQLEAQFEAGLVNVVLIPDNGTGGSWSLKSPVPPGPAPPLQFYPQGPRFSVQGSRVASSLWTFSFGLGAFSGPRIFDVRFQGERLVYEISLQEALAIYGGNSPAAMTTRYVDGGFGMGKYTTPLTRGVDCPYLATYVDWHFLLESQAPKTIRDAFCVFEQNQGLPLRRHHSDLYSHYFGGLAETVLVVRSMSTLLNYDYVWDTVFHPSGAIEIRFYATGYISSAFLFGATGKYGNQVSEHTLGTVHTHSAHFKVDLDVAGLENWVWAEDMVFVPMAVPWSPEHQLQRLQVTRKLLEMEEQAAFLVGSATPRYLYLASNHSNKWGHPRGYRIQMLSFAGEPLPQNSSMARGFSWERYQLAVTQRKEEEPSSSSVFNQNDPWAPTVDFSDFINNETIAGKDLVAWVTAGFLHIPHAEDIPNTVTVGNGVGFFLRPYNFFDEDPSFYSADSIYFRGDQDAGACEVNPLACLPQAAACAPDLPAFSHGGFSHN
In short: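 Enzyme in 50 mM sodium phosphate pH 7.4 preincubated with compound 30 min at 37 °C, then 1 mM benzylamine, 200 µM Amplex Red and 1 U/mL HRP added. H2O2-derived resorufin fluorescence (ex 544/em 590 nm) followed over 1–2 h; signal-rate decrease versus DMSO control, 8-point curve, four-parameter logistic IC50.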

[2] = target: T2, recombinant human MAO-A (monoamine oxidase-A) (Homo sapiens, UniProt P21397); test: Activity on recombinant human MAO-A, method similar to the VAP-1 assay; details: substrate 0.5 mM tyramine; read-out: Inhibitory Activity (IC50, nM) MAO-A
T2 construct: purchased Sigma-Aldrich
T2 sequence (P21397 1-527): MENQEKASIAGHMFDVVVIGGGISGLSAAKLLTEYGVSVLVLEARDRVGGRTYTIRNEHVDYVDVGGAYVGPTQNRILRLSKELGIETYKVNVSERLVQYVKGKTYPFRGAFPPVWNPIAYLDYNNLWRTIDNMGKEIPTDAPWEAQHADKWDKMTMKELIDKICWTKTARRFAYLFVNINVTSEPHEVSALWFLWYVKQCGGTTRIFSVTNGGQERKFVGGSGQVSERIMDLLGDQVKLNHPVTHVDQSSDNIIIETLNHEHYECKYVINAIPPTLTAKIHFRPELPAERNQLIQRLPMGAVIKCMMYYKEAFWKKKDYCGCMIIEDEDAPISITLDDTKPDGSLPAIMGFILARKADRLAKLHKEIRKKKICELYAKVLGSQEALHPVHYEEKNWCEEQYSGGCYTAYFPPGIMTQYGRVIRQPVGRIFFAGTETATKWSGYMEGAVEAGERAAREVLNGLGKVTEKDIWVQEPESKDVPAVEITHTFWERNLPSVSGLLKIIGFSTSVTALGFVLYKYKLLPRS
In short: (§1)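 Enzyme preincubated with compound 30 min at 37 °C in 50 mM sodium phosphate pH 7.4, final DMSO below 1%. Substrate was 0.5 mM tyramine for MAO-A and 1 mM benzylamine for MAO-B, with 200 uM Amplex Red and 1 U/mL HRP. H2O2-coupled resorufin fluorescence (ex 544/em 590) followed over 1–2 h; 8-point 4-parameter IC50.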

[3] = target: T3, recombinant human MAO-B (monoamine oxidase-B) (Homo sapiens, UniProt P27338); test: Activity on recombinant human MAO-B, method similar to the VAP-1 assay; details: substrate 1 mM benzylamine; read-out: Inhibitory Activity (IC50, nM) MAO-B
T3 construct: purchased Sigma-Aldrich
T3 sequence (P27338 1-520): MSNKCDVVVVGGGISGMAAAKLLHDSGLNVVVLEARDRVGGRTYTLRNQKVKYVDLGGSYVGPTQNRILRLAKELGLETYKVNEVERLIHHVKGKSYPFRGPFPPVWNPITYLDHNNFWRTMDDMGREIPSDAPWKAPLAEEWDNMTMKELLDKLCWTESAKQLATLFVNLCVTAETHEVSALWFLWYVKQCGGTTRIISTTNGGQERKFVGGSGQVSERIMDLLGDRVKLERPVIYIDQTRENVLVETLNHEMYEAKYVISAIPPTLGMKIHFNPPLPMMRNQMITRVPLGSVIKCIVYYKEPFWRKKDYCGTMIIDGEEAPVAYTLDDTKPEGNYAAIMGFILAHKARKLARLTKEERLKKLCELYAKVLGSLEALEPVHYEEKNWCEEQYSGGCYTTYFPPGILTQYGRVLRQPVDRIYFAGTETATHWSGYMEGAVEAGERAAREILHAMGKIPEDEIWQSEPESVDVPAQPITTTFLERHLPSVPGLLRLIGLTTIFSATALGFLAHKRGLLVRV
In short: as §1

[4] = target: T4, recombinant human DAO (diamine oxidase) (Homo sapiens, UniProt P19801); test: Activity on recombinant human DAO, method similar to the VAP-1 assay; details: substrate 1 mM putrescine; read-out: Inhibitory Activity (IC50, nM) DAO
T4 construct: purchased R&D systems
T4 sequence (P19801 20-751): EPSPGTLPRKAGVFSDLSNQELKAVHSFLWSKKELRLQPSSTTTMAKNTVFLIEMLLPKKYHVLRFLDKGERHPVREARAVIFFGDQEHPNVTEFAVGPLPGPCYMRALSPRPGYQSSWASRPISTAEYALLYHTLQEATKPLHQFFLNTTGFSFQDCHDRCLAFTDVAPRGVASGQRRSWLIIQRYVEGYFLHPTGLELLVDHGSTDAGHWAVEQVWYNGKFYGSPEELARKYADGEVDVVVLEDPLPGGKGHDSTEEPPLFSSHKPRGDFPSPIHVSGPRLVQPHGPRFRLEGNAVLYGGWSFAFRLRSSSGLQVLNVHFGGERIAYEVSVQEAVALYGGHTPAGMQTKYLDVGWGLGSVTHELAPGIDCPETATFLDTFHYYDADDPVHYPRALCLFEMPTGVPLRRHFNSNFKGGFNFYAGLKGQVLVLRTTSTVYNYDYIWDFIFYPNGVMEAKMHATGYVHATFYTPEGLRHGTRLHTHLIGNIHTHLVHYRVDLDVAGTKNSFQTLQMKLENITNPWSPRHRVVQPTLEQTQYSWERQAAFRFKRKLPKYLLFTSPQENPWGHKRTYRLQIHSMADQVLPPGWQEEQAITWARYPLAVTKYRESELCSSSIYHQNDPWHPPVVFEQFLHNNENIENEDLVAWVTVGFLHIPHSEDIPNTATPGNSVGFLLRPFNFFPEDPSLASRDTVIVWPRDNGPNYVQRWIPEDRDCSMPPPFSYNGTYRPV
In short: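 Inhibition of recombinant human diamine oxidase (DAO, R&D systems) was assessed by the same approach as the VAP-1 assay, using 1 mM putrescine as substrate. Hydrogen peroxide formed was detected through an HRP-coupled Amplex Red reaction yielding fluorescent resorufin, read at 544 nm excitation and 590 nm emission. IC50 values came from four-parameter logistic fitting in GraphPad Prism.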

SMILES | IC50 [1] [nM] | IC50 [2] [nM] | IC50 [3] [nM] | IC50 [4] [nM]
CN1CCC(n2cc(-c3ccc(Cn4cnn(C/C(=C/F)CN)c4=O)s3)cn2)CC1 [Example 159, 2-[(2E)-2-(aminomethyl)-3-fluoroprop-2-en-1-yl]-4-({5-[1-(1-methylpiperidin-4-yl)-1H-pyrazol-4-yl]thiophen-2-yl}methyl)-2,4-dihydro-3H-1,2,4-triazol-3-one] | 4.3 | > 100000 | > 100000 | 1200
NC/C(=C\F)Cn1ncn(Cc2ccc(-c3ccncc3)s2)c1=O [Example 160, 2-[(2E)-2-(aminomethyl)-3-fluoroprop-2-en-1-yl]-4-{[5-(pyridin-4-yl)thiophen-2-yl]methyl}-2,4-dihydro-3H-1,2,4-triazol-3-one] | 2.2 | > 100000 | 51 | 1100
CC(C)n1nccc1-c1ccc(Cn2cnn(C/C(=C/F)CN)c2=O)s1 [Example 161, 2-[(2E)-2-(aminomethyl)-3-fluoroprop-2-en-1-yl]-4-({5-[1-(propan-2-yl)-1H-pyrazol-5-yl]thiophen-2-yl}methyl)-2,4-dihydro-3H-1,2,4-triazol-3-one] | 3.7 | > 100000 | 15 | 4300
Cn1nc(C(F)(F)F)cc1-c1ccc(Cn2cnn(C/C(=C/F)CN)c2=O)s1 [Example 162, 2-[(2E)-2-(aminomethyl)-3-fluoroprop-2-en-1-yl]-4-({5-[1-methyl-3-(trifluoromethyl)-1H-pyrazol-5-yl]thiophen-2-yl}methyl)-2,4-dihydro-3H-1,2,4-triazol-3-one] | 3.2 | > 100000 | 250 | 250
NC/C(=C\F)Cn1ncn(Cc2ccc(C3=CCNCC3)s2)c1=O [Example 163, 2-[(2E)-2-(aminomethyl)-3-fluoroprop-2-en-1-yl]-4-{[5-(1,2,3,6-tetrahydropyridin-4-yl)thiophen-2-yl]methyl}-2,4-dihydro-3H-1,2,4-triazol-3-one] | 2.1 | > 100000 | 5500 | 300
NC/C(=C\F)Cn1ncn(Cc2ccc(-c3csc(CO)c3)s2)c1=O [Example 164, 2-[(2E)-2-(aminomethyl)-3-fluoroprop-2-en-1-yl]-4-{[5′-(hydroxymethyl)-2,3′-bithiophen-5-yl]methyl}-2,4-dihydro-3H-1,2,4-triazol-3-one] | 2.5 | > 100000 | 170 | 6800
NC/C(=C\F)Cn1ncn(Cc2ccc(-c3ccc(N)cc3)s2)c1=O [Example 166, 2-[(2E)-2-(aminomethyl)-3-fluoroprop-2-en-1-yl]-4-{[5-(4-aminophenyl)thiophen-2-yl]methyl}-2,4-dihydro-3H-1,2,4-triazol-3-one] | 7.7 | > 100000 | 1300 | 14000
NC/C(=C\F)Cn1ncn(Cc2ccc(-c3cnc(N)nc3)s2)c1=O [Example 167, 2-[(2E)-2-(aminomethyl)-3-fluoroprop-2-en-1-yl]-4-{[5-(2-aminopyrimidin-5-yl)thiophen-2-yl]methyl}-2,4-dihydro-3H-1,2,4-triazol-3-one] | 2.4 | > 100000 | > 10000 | 1800

The remaining lines, values ahead:

IC50 [1] [nM] | IC50 [2] [nM] | IC50 [3] [nM] | IC50 [4] [nM] | SMILES
4.2 | > 100000 | 28 | 1300 | Cn1nccc1-c1ccc(Cn2cnn(C/C(=C/F)CN)c2=O)s1 [Example 156, 2-[(2E)-2-(aminomethyl)-3-fluoroprop-2-en-1-yl]-4-{[5-(1-methyl-1H-pyrazol-5-yl)thiophen-2-yl]methyl}-2,4-dihydro-3H-1,2,4-triazol-3-one]
2.6 | > 100000 | 330 | 1700 | Cc1nn(C)cc1-c1ccc(Cn2cnn(C/C(=C/F)CN)c2=O)s1 [Example 157, 2-[(2E)-2-(aminomethyl)-3-fluoroprop-2-en-1-yl]-4-{[5-(1,3-dimethyl-1H-pyrazol-4-yl)thiophen-2-yl]methyl}-2,4-dihydro-3H-1,2,4-triazol-3-one]
1.9 | > 100000 | 430 | 340 | Cc1cc(-c2ccc(Cn3cnn(C/C(=C/F)CN)c3=O)s2)n(C)n1 [Example 158, 2-[(2E)-2-(aminomethyl)-3-fluoroprop-2-en-1-yl]-4-{[5-(1,3-dimethyl-1H-pyrazol-5-yl)thiophen-2-yl]methyl}-2,4-dihydro-3H-1,2,4-triazol-3-one]
7.5 | > 100000 | 2.8 | 5300 | Cc1cscc1-c1ccc(Cn2cnn(C/C(=C/F)CN)c2=O)s1 [Example 165, 2-[(2E)-2-(aminomethyl)-3-fluoroprop-2-en-1-yl]-4-[(4′-methyl-2,3′-bithiophen-5-yl)methyl]-2,4-dihydro-3H-1,2,4-triazol-3-one]
